Measurements published in PubChem BioAssay AID1963861 (Molecular Pharmacology Branch, DTP, NCI, 2024).

Tested on: 885724-159-R-J1-PDC KRAS PDC multicell spheroid viability
Assay: Anticancer human tumor 885724-159-R-J1-PDC patient-derived pancreatic adenocarcinoma cell line growth inhibition [KRAS2]
Details: for IC50: curve of first compound; for viability, T/C: stronger effect = lower value
From the text: Multicellular complex tumor spheroid response to RAS pathway inhibitors in combination with a targeted agents in patient-derived cell lines with oncogenic KRAS variants from multiple cancer types
A high-throughput screen of multi-cell type tumor spheroids was designed to identify active combinations of targeted small molecules and KRAS pathway inhibitors. Complex spheroids include a stromal component modeled by human endothelial cells (HUVEC) and fibroblasts modeled by human mesenchymal stem cells (MSCs). The concentration ranges selected for each drug and investigational agent were based upon clinically achievable concentrations if the clinical Cmax of the agent was known.
Compounds. The drugs and investigational agents: BI-3406 (NSC825286), BAY-293 (NSC824723), batoprotafib (TNO155; NSC825523), sotorasib (AMG 510; NSC818433), MRTX1257 (NSC819558), elimusertib (BAY 1895344; NSC800525), molibresib (GSK525762; NSC774829), temuterkib (LY3214996; NSC803410), venetoclax (NSC766270), alisertib (NSC759677), olaparib (NSC753686), talazoparib (NSC767125), erdafitinib (NSC781556), ipatasertib (NSC767898), cabozantinib (NSC761068), nintedanib (NSC756659), abemaciclib (NSC768073), docetaxel (NSC628503), trametinib (NSC758246), and sapanisertib (NSC764658) were obtained from the National Cancer Institute (NCI) Developmental Therapeutics Program Chemical Repository. The FDA-approved anticancer drug set is available from the Developmental Therapeutics Program. […] The stock solutions were prepared in dimethyl sulfoxide (DMSO, Sigma-Aldrich, St. Louis, MO, cat. D2650) at 800-fold the tested concentration and stored at -70 degrees C prior to their use. All drugs and investigational agents were tested over a range starting from a high concentration at or near the clinical Cmax and decreasing in half-log increments. If the clinical Cmax for an agent had not been determined, the highest concentration tested was 10 microM.
Cell Culture. All cells were maintained in an incubator at 37 degrees C and 5% CO2 with 95% humidity. The PDC lines were cultured according to standard operating procedures established by the NCI PDMR (https://pdmr.cancer.gov/sops/default.htm). Briefly, all PDCs were thawed and cultured in Matrigel-coated flasks prepared with a working solution of 1X Ham's F-12 nutrient mix, without supplementation (Invitrogen, Waltham, MA, cat. 11765054), 100 U/mL penicillin-streptomycin (Invitrogen, cat. 15140122), and 2.5% Matrigel (Corning Inc., Corning, NY, cat. 354248) for the first three passages. All PDCs were cultured in complete DMEM/F-12 media containing advanced DMEM/F-12 (Invitrogen, cat. 12634028), 4.9% defined fetal bovine serum, heat inactivated (HyClone Laboratories Inc., Logan, UT, cat. SH30070.03HI), 389 ng/mL hydrocortisone (Sigma-Aldrich, cat. H4001), 9.7 ng/mL human EGF recombinant protein (Invitrogen, cat. PHG0313), 23.4 microg/mL adenine (Sigma-Aldrich, cat. A2786), 97.3 U/mL penicillin-streptomycin (Invitrogen, cat. 15140122), 1.9 mM L-glutamine (Invitrogen, cat. 25030081), and 9.7 microM Y-27632 dihydrochloride (Tocris Bioscience, Bristol, United Kingdom, cat. 1254). The PDCs were cultured in complete DMEM/F12 media without 9.7 microM Y-27632 dihydrochloride for at least two passages prior to the screen. The established cell line HOP-62 was cultured in RPMI 1640 medium, HEPES (Invitrogen, cat. 22400105) with 10% defined fetal bovine serum (HyClone Laboratories Inc., cat. SH30070.03) and 2 mM L-glutamine (Invitrogen, cat. 25030081). The pooled donor HUVEC were cultured in endothelial cell growth medium 2 (PromoCell, Heidelberg, Germany, cat. C-22011) and the hMSC were cultured in mesenchymal stem cell growth medium 2 (PromoCell, cat. C-28009). For all experiments, HUVEC and hMSC were used at passages </=5, while the malignant cell lines were used at passages </=15. […]

[1] = second compound 0.1 µM, first compound 0.0316 µM
[2] = second compound 0.1 µM, first compound 0.1 µM
[3] = second compound 0.1 µM, first compound 0.316 µM
[4] = second compound 0.1 µM, first compound 1 µM
[5] = second compound 0.1 µM, first compound 3.16 µM
[6] = second compound 0.1 µM, first compound 10 µM
[7] = second compound 0.316 µM, first compound 0.0316 µM
[8] = second compound 0.316 µM, first compound 0.1 µM
[9] = second compound 0.316 µM, first compound 0.316 µM
[10] = second compound 0.316 µM, first compound 1 µM
[11] = second compound 0.316 µM, first compound 3.16 µM
[12] = second compound 0.316 µM, first compound 10 µM
[13] = second compound 1 µM, first compound 0.0316 µM
[14] = second compound 1 µM, first compound 0.1 µM
[15] = second compound 1 µM, first compound 0.316 µM
[16] = second compound 1 µM, first compound 1 µM
[17] = second compound 1 µM, first compound 3.16 µM
[18] = second compound 1 µM, first compound 10 µM
[19] = second compound 3.16 µM, first compound 0.0316 µM
[20] = second compound 3.16 µM, first compound 0.1 µM
[21] = second compound 3.16 µM, first compound 0.316 µM
[22] = second compound 3.16 µM, first compound 1 µM
[23] = second compound 3.16 µM, first compound 3.16 µM
[24] = second compound 3.16 µM, first compound 10 µM
[25] = second compound 10 µM, first compound 0.0316 µM
[26] = second compound 10 µM, first compound 0.1 µM
[27] = second compound 10 µM, first compound 0.316 µM
[28] = second compound 10 µM, first compound 1 µM
[29] = second compound 10 µM, first compound 3.16 µM
[30] = second compound 10 µM, first compound 10 µM
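Further: spheroids exposed to agents for 7 days before readout.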

Question: With `COC(=O)c1ccc2c(C(=Nc3ccc(N(C)C(=O)CN4CCN(C)CC4)cc3)c3ccccc3)c(O)[nH]c2c1` + COc1cc2nc(C)nc(NC(C)c3cc(N)cc(C(F)(F)F)c3)c2cc1OC1CCOC1 as the compound, how does the IC50 (second compound 0.1 µM) read?
Answer: 2.29 µM

Question: And the IC50 (second compound 0.316 µM)?
Answer: 2.43 µM

Question: What about the IC50 (second compound 1 µM) of the same compound?
Answer: 1.98 µM

Question: What about the IC50 (second compound 3.16 µM) of the same compound?
Answer: 1.78 µM

Question: And the IC50 (second compound 10 µM)?
Answer: < 0.0316 µM

Question: And the viability, T/C [1]?
Answer: 121%

Question: And the viability, T/C [2]?
Answer: 127%

Question: What about the viability, T/C [3] of the same compound?
Answer: 120%

Question: What about the viability, T/C [4] of the same compound?
Answer: 118%

Question: What about the viability, T/C [5] of the same compound?
Answer: 23.7%

Question: And the viability, T/C [6]?
Answer: 1.54%

Question: And the viability, T/C [7]?
Answer: 107%

Question: And the viability, T/C [8]?
Answer: 114%

Question: And the viability, T/C [9]?
Answer: 102%

Question: And the viability, T/C [10]?
Answer: 103%

Question: What about the viability, T/C [11] of the same compound?
Answer: 34.5%

Question: And the viability, T/C [12]?
Answer: 0.96%

Question: What about the viability, T/C [13] of the same compound?
Answer: 103%

Question: And the viability, T/C [14]?
Answer: 106%

Question: And the viability, T/C [15]?
Answer: 107%

Question: What about the viability, T/C [16] of the same compound?
Answer: 98.1%

Question: What about the viability, T/C [17] of the same compound?
Answer: 17%

Question: And the viability, T/C [18]?
Answer: 1.09%

Question: What about the viability, T/C [19] of the same compound?
Answer: 93.8%

Question: And the viability, T/C [20]?
Answer: 98.6%

Question: And the viability, T/C [21]?
Answer: 104%

Question: And the viability, T/C [22]?
Answer: 95.8%

Question: What about the viability, T/C [23] of the same compound?
Answer: 3.95%

Question: What about the viability, T/C [24] of the same compound?
Answer: 0.79%

Question: What about the viability, T/C [25] of the same compound?
Answer: 46.7%

Question: What about the viability, T/C [26] of the same compound?
Answer: 48.8%

Question: And the viability, T/C [27]?
Answer: 19.4%

Question: What about the viability, T/C [28] of the same compound?
Answer: 8.2%

Question: What about the viability, T/C [29] of the same compound?
Answer: 0.75%

Question: And the viability, T/C [30]?
Answer: 0.36%

Question: Which results are given for `COc1cc(Nc2ncc3c(n2)-c2ccc(Cl)cc2C(c2c(F)cccc2OC)=NC3)ccc1C(=O)O` + C=CC(=O)N1CCN(c2nc(=O)n(-c3c(C)ccnc3C(C)C)c3nc(-c4c(O)cccc4F)c(F)cc23)C(C)C1?
Answer: IC50 (second compound 0.1 µM): > 10 µM; IC50 (second compound 0.316 µM): > 10 µM; IC50 (second compound 1 µM): > 10 µM; IC50 (second compound 3.16 µM): > 10 µM; IC50 (second compound 10 µM): > 10 µM; viability, T/C [1]: 99.7%; viability, T/C [2]: 100%; viability, T/C [3]: 95.9%; viability, T/C [4]: 92.7%; viability, T/C [5]: 100%; viability, T/C [6]: 107%; viability, T/C [7]: 94.5%; viability, T/C [8]: 92.1%; viability, T/C [9]: 92.2%; viability, T/C [10]: 96.8%; viability, T/C [11]: 98.7%; viability, T/C [12]: 106%; viability, T/C [13]: 97.8%; viability, T/C [14]: 93.5%; viability, T/C [15]: 92.2%; viability, T/C [16]: 93.9%; viability, T/C [17]: 85.6%; viability, T/C [18]: 99.7%; viability, T/C [19]: 80.9%; viability, T/C [20]: 85.5%; viability, T/C [21]: 86.1%; viability, T/C [22]: 90.6%; viability, T/C [23]: 90.9%; viability, T/C [24]: 87.4%; viability, T/C [25]: 65.4%; viability, T/C [26]: 67.4%; viability, T/C [27]: 63.6%; viability, T/C [28]: 58.2%; viability, T/C [29]: 56.5%; viability, T/C [30]: 49.8%

Question: With `COC(=O)c1ccc2c(C(=Nc3ccc(N(C)C(=O)CN4CCN(C)CC4)cc3)c3ccccc3)c(O)[nH]c2c1` + C=CC(=O)N1CCN(c2nc(OCC3CCCN3C)nc3c2CCN(c2cccc4cccc(C)c24)C3)CC1CC#N as the compound, how does the IC50 (second compound 0.0316 µM) read?
Answer: 2.08 µM

Question: And the IC50 (second compound 0.1 µM)?
Answer: 1.86 µM

Question: What about the IC50 (second compound 0.316 µM) of the same compound?
Answer: 1.71 µM

Question: What about the IC50 (second compound 1 µM) of the same compound?
Answer: 1.68 µM

Question: What about the IC50 (second compound 3.16 µM) of the same compound?
Answer: 0.431 µM

Question: What about the viability, T/C (second compound 0.0316 µM, first compound 0.0316 µM) of the same compound?
Answer: 100%

Question: And the viability, T/C (second compound 0.0316 µM, first compound 0.1 µM)?
Answer: 104%

Question: And the viability, T/C (second compound 0.0316 µM, first compound 0.316 µM)?
Answer: 101%

Question: What about the viability, T/C (second compound 0.0316 µM, first compound 1 µM) of the same compound?
Answer: 94.5%

Question: What about the viability, T/C (second compound 0.0316 µM, first compound 3.16 µM) of the same compound?
Answer: 24.4%

Question: And the viability, T/C (second compound 0.0316 µM, first compound 10 µM)?
Answer: 0.81%

Question: And the viability, T/C [1]?
Answer: 100%

Question: And the viability, T/C [2]?
Answer: 97%

Question: What about the viability, T/C [3] of the same compound?
Answer: 98.5%

Question: What about the viability, T/C [4] of the same compound?
Answer: 85.1%

Question: And the viability, T/C [5]?
Answer: 19.9%

Question: And the viability, T/C [6]?
Answer: 0.65%

Question: What about the viability, T/C [7] of the same compound?
Answer: 100%

Question: What about the viability, T/C [8] of the same compound?
Answer: 100%

Question: What about the viability, T/C [9] of the same compound?
Answer: 91.5%

Question: And the viability, T/C [10]?
Answer: 83.8%

Question: What about the viability, T/C [11] of the same compound?
Answer: 11.3%

Question: And the viability, T/C [12]?
Answer: 0.77%

Question: And the viability, T/C [13]?
Answer: 90.4%

Question: And the viability, T/C [14]?
Answer: 91.4%

Question: And the viability, T/C [15]?
Answer: 85.9%

Question: What about the viability, T/C [16] of the same compound?
Answer: 84.5%

Question: What about the viability, T/C [17] of the same compound?
Answer: 7.97%

Question: And the viability, T/C [18]?
Answer: 0.43%

Question: And the viability, T/C [19]?
Answer: 58.4%

Question: What about the viability, T/C [20] of the same compound?
Answer: 51.1%

Question: What about the viability, T/C [21] of the same compound?
Answer: 54.1%

Question: And the viability, T/C [22]?
Answer: 38%

Question: And the viability, T/C [23]?
Answer: 1.11%

Question: What about the viability, T/C [24] of the same compound?
Answer: 0.32%
